Data as given in publication PMC12026874, “Microstructure of Sea Cucumber Parastichopus tremulus Peptide Hydrogels and Bioactivity in Caco-2 Cell Culture Model” (Gels, 2025).
Entries after “also recorded” stand apart in the source; their conditions may differ. Where no end group is shown, it is not given here.

Experiments:
[1] = Experimental solubility and minimum gelation conditions; type: physicochemical; settings: for solubility in sodium phosphate buffer (NaPB): 75 mM sodium phosphate buffer pH 7.4 (also ORAC buffer), 1–15 mM; for peptide concentration at which gelation occurs in NaPB: 75 mM sodium phosphate buffer pH 7.4, room temperature, no DMSO
[2] = target: T1, angiotensin-I converting enzyme (ACE I) (Oryctolagus cuniculus, UniProt P12822); test: ACE I inhibitory activity (cleavage of FA-PGG); type: biochemical; settings: for IC50: linear regression over 7, 8.5 and 10 mg/mL, substrate FA-PGG, three independent replicates, read-out: ACE I inhibition IC50 (converted)
T1 construct: purchased Sigma Aldrich A6778
T1 sequence (P12822 34-1310): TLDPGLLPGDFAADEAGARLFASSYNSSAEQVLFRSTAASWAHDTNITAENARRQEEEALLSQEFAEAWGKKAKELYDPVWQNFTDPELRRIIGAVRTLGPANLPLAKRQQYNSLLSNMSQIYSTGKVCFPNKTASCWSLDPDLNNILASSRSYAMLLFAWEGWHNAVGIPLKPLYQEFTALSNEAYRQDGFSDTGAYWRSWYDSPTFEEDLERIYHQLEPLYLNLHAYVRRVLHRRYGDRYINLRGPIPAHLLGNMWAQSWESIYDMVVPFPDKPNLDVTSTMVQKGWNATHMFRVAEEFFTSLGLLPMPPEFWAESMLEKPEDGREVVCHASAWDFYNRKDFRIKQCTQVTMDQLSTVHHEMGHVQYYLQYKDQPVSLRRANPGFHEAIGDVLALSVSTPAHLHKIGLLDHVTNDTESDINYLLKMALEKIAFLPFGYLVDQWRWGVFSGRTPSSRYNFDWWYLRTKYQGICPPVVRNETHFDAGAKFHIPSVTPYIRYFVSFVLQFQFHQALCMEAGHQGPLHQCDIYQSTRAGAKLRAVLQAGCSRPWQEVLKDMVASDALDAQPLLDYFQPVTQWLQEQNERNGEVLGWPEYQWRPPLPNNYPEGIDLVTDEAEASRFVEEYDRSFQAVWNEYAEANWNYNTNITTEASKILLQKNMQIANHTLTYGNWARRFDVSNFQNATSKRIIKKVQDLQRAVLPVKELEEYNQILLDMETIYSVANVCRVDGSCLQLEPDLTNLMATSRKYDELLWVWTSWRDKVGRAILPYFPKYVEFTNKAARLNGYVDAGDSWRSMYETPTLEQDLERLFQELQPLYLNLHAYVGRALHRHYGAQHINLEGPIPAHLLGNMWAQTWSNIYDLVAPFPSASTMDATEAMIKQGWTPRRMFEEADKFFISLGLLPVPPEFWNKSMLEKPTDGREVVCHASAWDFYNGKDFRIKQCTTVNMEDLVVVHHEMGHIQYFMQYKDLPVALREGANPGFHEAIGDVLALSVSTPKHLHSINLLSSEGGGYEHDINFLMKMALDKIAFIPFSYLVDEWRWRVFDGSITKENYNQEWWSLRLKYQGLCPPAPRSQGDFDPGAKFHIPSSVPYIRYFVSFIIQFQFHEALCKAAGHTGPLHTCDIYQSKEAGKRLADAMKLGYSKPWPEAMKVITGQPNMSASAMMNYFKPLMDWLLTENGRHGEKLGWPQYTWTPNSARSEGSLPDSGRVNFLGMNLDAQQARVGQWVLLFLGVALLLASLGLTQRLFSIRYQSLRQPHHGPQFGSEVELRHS
Procedure: For the angiotensin-I converting enzyme (ACE I) inhibitory activity measurements, the peptides were dissolved as described for the ORAC assay. As the highest possible concentration of the peptides without gel formation was 10 mg/mL and no activity could be detected at 5 mg/mL, the peptides were assessed at 7, 8.5, and 10 mg/mL in three independent replicates. The substrate N-[3-(2-furyl) acryloyl]-L-phenylalanyl-glycylglycine (FA-PGG; Sigma Aldrich F7131) was prepared at 0.88 mM in 50 mM Tris-Cl, pH 7.5, and 0.3 M NaCl. In 96-well plates, 10 µL of the samples and their respective buffers as controls were combined with 10 µL of ACE I (ACE; Sigma Aldrich A6778) at 0.25 U/mL and 150 µL of a preheated substrate solution. The absorbance was continuously measured every minute at 340 nm for 30 min in a Synergy HTX S1LFA plate reader. Linear regression curves were obtained for the decrease in absorbance over time for every sample and the % ACE I inhibition was calculated as:% ACE I inhibition = (1 − (ΔA340 nm protein solution/ΔA340 nm negative control)) × 100
Captopril was used to verify the functionality of the assay, and a logarithmic inhibition curve was obtained using 340, 34, 17, and 8.5 µM captopril. IC 50 values were calculated for the peptides for which a positive linear regression line could be obtained based on their ACE inhibition (%) at the assessed concentrations.

[3] = accompanying manufacturer information; ref ProteoGenix SAS; cited from earlier work
Procedure: The peptide synthesis was carried out using ProteoGenix SAS, (Schiltigheim France), followed by acetate N-terminal blocking and chromatography purification (LC-MS purity chromatograms per peptide are included in the Supplementary Materials). Thus, 1 g of lyophilized powder at 80% or a higher purity (technical grade) in sterile plastic bottles was provided by ProteoGenix for further research. The peptides were stored at −20 °C, opened only prior to the dissolution preparation and ...

## Ac-RAGQPITAFLVRD [Peptide P2]
[1]; room temperature, visual
  solubility in sodium phosphate buffer (NaPB): insoluble; also recorded: insolubility
[1]; both buffers: Ca2+-containing artificial sea water pH 7.7 and 75 mM sodium phosphate buffer pH 7.4, 21 °C, visual, three repetitions
  individual peptide solubility: low
[2]; at 10 mg/mL, mean of three replicates
  inhibition at 10000 µg/mL: 75%
[2]
  IC50: 4.78 mM

## Ac-QNGEYGCVADTPNLLYAFKILDYRQ [Peptide P4]
[3]
  water solubility: poor
[1]; room temperature, visual
  solubility in sodium phosphate buffer (NaPB): dissolved after gentle agitation without any need for DMSO addition
[1]
  peptide concentration at which gelation occurs in NaPB: above 15 mM
[2]
  IC50: 8.96 mM

## Ac-EMLWLSDGSMGFAEDTDAAFLPGDTIFGRI [Peptide P1]
[3]
  water solubility: poor
[1]; room temperature, visual
  solubility in sodium phosphate buffer (NaPB): dissolved after gentle agitation without any need for DMSO addition
[1]
  peptide concentration at which gelation occurs in NaPB: above 15 mM

## Ac-SRPSDPASAVAGEDYTGISRN [Peptide P3]
[1]; 1 mM peptide, artificial sea water pH 7.7, no DMSO, room temperature, visual
  solubility in Ca2+-containing buffer: fully soluble
[1]; room temperature, visual
  solubility in sodium phosphate buffer (NaPB): dissolved after gentle agitation without any need for DMSO addition
[1]
  peptide concentration at which gelation occurs in NaPB: above 15 mM
[1]; Ca2+-containing buffer (artificial sea water, 11 mM Ca2+, pH 7.7), room temperature 21 °C, mix at 1:1:1:1 ratio
  peptide concentration needed for gelation (minimal gelation conditions): 15 mM
